The source of these data is US20250214977A1, “STAT6 INHIBITORS AND USES THEREOF” (Kymera Therapeutics, Inc., priority 2024, published 2025).

pIC50: −log10 of the molar value. Where “and” joins values, the source holds several entries; their conditions need not be identical. Equal entries are not always repeated.

The test system of the assay is Phosphorylation of STAT6 in human A549 cells. The assay is described as follows: Phosphorylated STAT6 (pSTAT6) flow cytometry assay in human A549 cells. The format is cell-based. Conditions: read-out: STAT6 IL4 pSTAT6 assay in A549 cells: Average IC50. The source says: Example 3. Phosphorylated STAT6 (pSTAT6) Flow Cytometry Assay in Human A549 Cells
Phosphorylation of STAT6 in human A549 cells was quantitatively measured using flow cytometry technology.

`COc1ccccc1-c1cc(C2=CCCN(C(=O)CCn3ccnn3)C2)c(F)c2[nH]c(C(=O)N3CCN(c4nc(OC(F)F)ccc4OC)CC3)cc12` [Example I-490]: the pIC50 (as a rule, −log10 of the IC50, conventionally taken in molar units) was < 4.00. In the case of `Cc1ccc(Cl)c(-c2cc(C3=CCCN(C(=O)CCn4ccnn4)C3)cc3[nH]c(C(=O)N(C)C)cc23)c1` [Example I-1061] it was > 7.00.

Consider `Cc1ccc(C#N)cc1-c1cc(C2=CCCN(C(=O)CCn3ccnn3)C2)cc2cc(C(=O)N(C)C)oc12` [Example I-1079], for which the pIC50 was > 7.00. To `CCn1ncc2c1CN(C(=O)c1cc3c(-c4ccccc4OC)cc(C4=CCCN(C(=O)CCn5ccnn5)C4)c(F)c3[nH]1)C2` [Example I-507] belongs 4.00 to 5.00; to `COc1ccccc1-c1cc(C2=CCCN(C(C)=O)C2)c(F)c2cc(C(=O)N(C)C)oc12` [Example I-1104], 6.00 to 7.00. Take `CN(C)C(=O)c1cc2ccc(C3=CCCN(C(=O)CCc4nncs4)C3)cc2[nH]1` [Example I-828]: the pIC50 was 6.00 to 7.00. In the case of `COc1ccccc1-c1cc(C2=CCCN(C(=O)CCn3ccnn3)C2)c(F)c2[nH]c(C(=O)N(C)CCc3ccccn3)cc12` [Example I-986] it was > 7.00. In the case of `COc1ccccc1-c1cc(C2=CCCN(C(=O)CCn3ccnn3)C2)c(F)c2[nH]c(C(=O)N3CCN(c4cc(C)cc(Br)c4OC)CC3)cc12` [Example I-964] it was 6.00 to 7.00. Regarding `CCSc1ccccc1-c1cc(C2=CCCN(C(=O)CCn3ccnn3)C2)c(F)c2[nH]c(C(=O)N3CCN(c4ncc(F)cc4OC)CC3)cc12` [Example I-679], the pIC50 was > 7.00. `CCc1ccncc1-c1cc(C2=CCCN(C(=O)CCn3ccnn3)C2)c(F)c2[nH]c(C(=O)N3CCN(c4ncc(Cl)cc4OC)CC3)cc12` [Example I-472]: the pIC50 was > 7.00. In the case of `COc1ccccc1-c1cc(C2=CCCN(C(=O)CCn3ccnn3)C2)c(F)c2[nH]c(C(=O)N3CCN(c4nccc5ccncc45)CC3)cc12` [Example I-355] it was > 7.00. To `CN(C)C(=O)c1cc2c(F)c(C3=CCCN(C(=O)[C@@H]4Cc5ccccc5CN4C=O)C3)ccc2o1` (single isomer, unassigned) [Example I-375] belongs 6.00 to 7.00; to `CN(C)C(=O)c1cc2c(-c3ccccc3S(C)(=O)=O)cc(C3=CCCN(C(=O)CCn4ccnn4)C3)c(F)c2[nH]1` [Example I-1068], > 7.00; to `CNc1ccc(-c2cc(C3=CCCN(C(=O)CCn4ccnn4)C3)c(F)c3[nH]c(C(=O)N(C)C)cc23)c(OC)c1` [Example I-1059], > 7.00. In the case of `COc1ccncc1-c1cc(C2=CCCN(C(=O)CCn3ccnn3)C2)c(F)c2[nH]c(C(=O)N3CC=C(c4ncc(F)cc4OC)CC3)cc12` [Example I-442] it was > 7.00; in that of `COc1ccccc1-c1cc(C2=CCCN(C(=O)CCn3ccnn3)C2)c(F)c2[nH]c(C(=O)N3CCC(c4ccccc4OC)CC3)cc12` [Example I-422], > 7.00. Regarding `COc1ccccc1-c1cc(C2=CCCN(C(=O)CCn3ccnn3)C2)c(F)c2[nH]c(C(=O)N3CCO[C@H](C)C3)cc12` [Example I-1007], the pIC50 is > 7.00. `Cc1c[nH]c2ncc(-c3cc(C4=CCCN(C(=O)CCn5ccnn5)C4)c(F)c4[nH]c(C(=O)N(C)C)cc34)cc12` [Example I-1101]: the pIC50 is > 7.00.

Consider `CCC1CCCC=C1c1cc(C2=CCCN(C(=O)CCn3ccnn3)C2)c(F)c2[nH]c(C(=O)N3CCN(c4ncccc4OC)CC3)cc12` (centres unmarked) [Example I-1168], for which the pIC50 is 6.00 to 7.00. For `CCn1cc2c(n1)CN(C(=O)c1cc3c(-c4ccccc4OC)cc(C4=CCCN(C(=O)CCn5ccnn5)C4)c(F)c3[nH]1)C2` [Example I-505], the pIC50 was 4.00 to 5.00. As to `COc1cc(F)cnc1N1CCN(C(=O)c2cc3c(-c4cccc5c4OCCCO5)cc(C4=CCCN(C(=O)CCn5ccnn5)C4)c(F)c3[nH]2)CC1` [Example I-678], the pIC50 was > 7.00. To `COc1cc(F)cnc1N1CCN(C(=O)c2cc3c(C4=CCN(c5ccccn5)CC4)cc(C4=CCCN(C(=O)CCn5ccnn5)C4)c(F)c3[nH]2)CC1` [Example I-1117] belongs > 7.00; to `CN(C)C(=O)c1ccc2c(c1)cc(C1=CCCN(C(=O)CCn3ccnn3)C1)n2CC1CC1` [Example I-1096], > 7.00; to `COc1ccccc1-c1cc(C2=CCCN(C(=O)CCn3ccnn3)C2)c(F)c2[nH]c(C(=O)N3CCN(c4ccc5ccccc5c4OC)CC3)cc12` [Example I-956], 5.00 to 6.00.

For `COc1cc(F)ccc1-c1cc(C2=CCCN(C(=O)CCn3ccnn3)C2)c(F)c2[nH]c(C(=O)N3CCN(c4ccc(F)c(OC)n4)CC3)cc12` [Example I-1107], the pIC50 was 6.00 to 7.00. To `O=C(CCn1ccnn1)N1CCC=C(c2cc(-c3ccccc3)c3cc(C(=O)N4CCN(c5ncccc5OC5CC5)CC4)[nH]c3c2F)C1` [Example I-938] belongs > 7.00; to `COc1cc(F)cnc1N1CCN(C(=O)c2cc3c(/C=C/CCl)cc(C4=CCCN(C(=O)CCn5ccnn5)C4)c(F)c3[nH]2)CC1` [Example I-1162], 5.00 to 6.00; to `COc1ccccc1-c1cc(C(=O)N2CCN(c3ncc(F)cc3OC)CC2)cc2cc(C3=CCCN(C(=O)CCn4ccnn4)C3)n(CC(C)C)c12` [Example I-521], > 7.00. In the case of `CCc1nc(C)ccc1-c1cc(C2=CCCN(C(=O)CCn3ccnn3)C2)c(F)c2[nH]c(C(=O)N3CCN(c4ncc(F)cc4OC)CC3)cc12` [Example I-735], the pIC50 was > 7.00.

As to `COc1cc(F)cnc1N1CCN(C(=O)c2cc3c(C4=COCCC4)cc(C4=CCCN(C(=O)CCn5ccnn5)C4)c(F)c3[nH]2)CC1` [Example I-1155], the pIC50 was > 7.00. Take `COc1cc(F)cnc1N1CCN(C(=O)c2cc3c(Br)cc(C4=CCCN(C(=O)CCn5ccnn5)C4)c(F)c3[nH]2)CC1` [Example I-806, 1-(5-(4-bromo-7-fluoro-2-(4-(5-fluoro-3-methoxypyridin-2-yl)piperazine-1-carbonyl)-1H-indol-6-yl)-3,6-dihydropyridin-1(2H)-yl)-3-(1H-1,2,3-triazol-1-yl)propan-1-one]: the negative logarithm of the IC50 (pIC50) is 4.00 to 5.00 and 6.00 to 7.00. In the case of `CCOc1ccncc1-c1cc(C2=CCCN(C(=O)CCn3ccnn3)C2)c(F)c2[nH]c(C(=O)N3CCN(c4cncnc4OC)CC3)cc12` [Example I-470] it was > 7.00; in that of `COc1cccnc1N1CCN(C(=O)c2cc3c(C4CCN(C)C4)cc(C4=CCCN(C(=O)CCn5ccnn5)C4)c(F)c3[nH]2)CC1` (centres unmarked) [Example I-585], > 7.00.

Turning to `CN(C)C(=O)c1cc2cc(C3=CCCN(C(=O)CCn4ccnn4)C3)cc(NCc3ccc(F)cc3)c2o1` [Example I-872], the pIC50 is 6.00 to 7.00. To `COc1ccccc1-c1cc(C2=CCCN(C(=O)CCn3ccnn3)C2)c(F)c2[nH]c(C(=O)N3CCN(c4cccnc4OC)CC3)cc12` [Example I-347] belongs > 7.00; to `CCC1CN(C)CCC1c1cc(C2=CCCN(C(=O)CCn3ccnn3)C2)c(F)c2[nH]c(C(=O)N3CCN(c4ncc(F)cc4OC)CC3)cc12` (centres unmarked) [Example I-781], > 7.00. For `CC(=O)N1CCC=C(c2cc(-c3cncc4ccccc34)c3cc(C(=O)N(C)C)[nH]c3c2F)C1` [Example I-1098], the pIC50 was > 7.00. On to `CCc1ccncc1-c1cc(C2=CCCN(C(=O)CCn3ccnn3)C2)c(F)c2[nH]c(C(=O)N3CCN(c4ncccc4OC4CC4)CC3)cc12` [Example I-479], for which the pIC50 is > 7.00.
